The target of one assay is T1, Protein skinhead-1 (Caenorhabditis elegans, UniProt P34707).
T1 sequence (P34707 whole entry): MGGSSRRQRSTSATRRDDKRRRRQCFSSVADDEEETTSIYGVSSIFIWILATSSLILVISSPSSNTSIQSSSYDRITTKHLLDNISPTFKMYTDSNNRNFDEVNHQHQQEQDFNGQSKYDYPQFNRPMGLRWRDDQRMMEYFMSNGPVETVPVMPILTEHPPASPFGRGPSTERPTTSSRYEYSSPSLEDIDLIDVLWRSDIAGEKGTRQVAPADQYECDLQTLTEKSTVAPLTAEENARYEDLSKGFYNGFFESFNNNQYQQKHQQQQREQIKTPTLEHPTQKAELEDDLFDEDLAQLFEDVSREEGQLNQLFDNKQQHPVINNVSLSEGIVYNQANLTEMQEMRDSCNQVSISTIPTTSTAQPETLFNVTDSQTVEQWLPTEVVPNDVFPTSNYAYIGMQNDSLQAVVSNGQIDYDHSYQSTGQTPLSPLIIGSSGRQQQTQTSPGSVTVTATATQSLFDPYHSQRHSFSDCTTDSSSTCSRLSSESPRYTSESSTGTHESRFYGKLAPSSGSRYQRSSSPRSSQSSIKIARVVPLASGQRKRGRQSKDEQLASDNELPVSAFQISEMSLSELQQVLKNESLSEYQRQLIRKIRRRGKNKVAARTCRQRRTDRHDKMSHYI
In kind it is functional.

The target in assay [1] is T2, DNA repair protein RAD52 homolog (Homo sapiens, UniProt P43351).
T2 sequence (P43351 whole entry): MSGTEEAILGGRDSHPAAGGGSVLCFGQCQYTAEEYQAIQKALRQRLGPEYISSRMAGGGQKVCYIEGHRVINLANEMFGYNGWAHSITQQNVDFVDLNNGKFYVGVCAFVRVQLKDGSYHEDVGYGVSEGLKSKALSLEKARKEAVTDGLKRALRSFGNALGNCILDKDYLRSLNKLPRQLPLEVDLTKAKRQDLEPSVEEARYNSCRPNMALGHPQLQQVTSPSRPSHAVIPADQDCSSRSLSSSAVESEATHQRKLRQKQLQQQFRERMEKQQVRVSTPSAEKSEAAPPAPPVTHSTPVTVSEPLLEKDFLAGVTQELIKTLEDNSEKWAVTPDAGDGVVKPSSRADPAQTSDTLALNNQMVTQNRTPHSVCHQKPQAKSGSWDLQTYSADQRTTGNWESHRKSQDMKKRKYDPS
In kind it is functional, biochemical.

The nature of assay [2]: blockers of HIV-1 envelope-mediated cell-cell fusion – cherry-pick, dose response (AID 652057). In kind it is functional, cell-based.
The nature of assay [3]: HIV-1 AD8 envelope cell-cell fusion blockers – cherry-pick, dose response (AID 652062).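 Further: luciferase signal from cell-cell fusion driven by HIV-1 clade B AD8 Env; potency is for inhibitors of fusion seen as a drop in luminescence.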 In kind it is functional, cell-based.
Assay [4] has as its system BJ. Description: BJ-TERT-LT-ST fibroblast viability loss – cell-based, RAS-independent, luminescence, dose response (AID 1935).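 Further: BJ fibroblasts immortalized with TERT plus LT and ST oncogenes.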 In kind it is functional. The conditions noted are these: Homo sapiens.
In a further assay the target is Paired box protein Pax-8 (Homo sapiens, UniProt Q06710). Description: PAX8 transcriptional activity inhibition in RMG-I – RMG-I cells, luciferase, cherry-pick, dose response (AID 687027).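 Further: luciferase reporter driven by Pax8 target thyroperoxidase promoter measured by SteadyGlo luminescence.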 In kind it is functional, cell-based.
Assay [5] can be described thus: fluconazole-exposed Candida albicans growth modulators – fluorescence, retest, confirmation (AID 2467). In kind it is functional, cell-based.
A short description of assay [6]: DRD fibroblast viability loss – cell-based, non-viral oncogenic, luminescence, dose response (AID 1934). The conditions noted are these: Homo sapiens. In kind it is functional.
Assay [7] has as its system BJ. Description: cells. In kind it is functional, cell-based. The conditions noted are these: Homo sapiens.
The target in assay [8] is T3, Corticotropin-releasing factor receptor 2/Corticotropin-releasing factor-binding protein (Homo sapiens, UniProt P24387+Q13324).
T3 sequence (Q13324 whole entry): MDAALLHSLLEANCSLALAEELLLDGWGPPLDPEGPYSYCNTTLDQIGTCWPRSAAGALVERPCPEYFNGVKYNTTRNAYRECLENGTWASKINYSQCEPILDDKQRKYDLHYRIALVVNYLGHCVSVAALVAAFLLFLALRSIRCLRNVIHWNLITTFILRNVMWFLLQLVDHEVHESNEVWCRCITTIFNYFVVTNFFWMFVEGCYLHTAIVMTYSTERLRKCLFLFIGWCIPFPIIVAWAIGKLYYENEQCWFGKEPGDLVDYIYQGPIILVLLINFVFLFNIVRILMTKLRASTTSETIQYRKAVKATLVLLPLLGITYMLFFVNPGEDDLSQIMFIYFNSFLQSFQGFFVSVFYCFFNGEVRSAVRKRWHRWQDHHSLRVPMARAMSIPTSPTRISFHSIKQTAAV
T3 sequence (P24387 whole entry): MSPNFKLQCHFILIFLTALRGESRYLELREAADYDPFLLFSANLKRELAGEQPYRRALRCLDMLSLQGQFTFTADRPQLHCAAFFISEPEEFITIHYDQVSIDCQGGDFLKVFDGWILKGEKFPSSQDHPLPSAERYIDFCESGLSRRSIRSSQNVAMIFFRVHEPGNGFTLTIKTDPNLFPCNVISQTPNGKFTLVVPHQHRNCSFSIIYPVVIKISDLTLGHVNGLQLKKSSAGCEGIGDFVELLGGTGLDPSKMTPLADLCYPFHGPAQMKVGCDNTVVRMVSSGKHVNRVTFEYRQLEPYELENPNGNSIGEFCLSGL
Description: activators of CRF receptor 2 with binding protein – uHTS hits, confirmation (AID 602473). In kind it is functional. The conditions noted are these: read-out: EC50_Mean.

The target in assay [9] is T3, Corticotropin-releasing factor receptor 2/Corticotropin-releasing factor-binding protein. Description: Dose Response confirmation of uHTS hits for small molecule antagonists of the CRF-binding protein and CRF-R2 receptor complex. In kind it is functional. The conditions noted are these: read-out: IC50_Mean.
In another assay the test system is Vero. Description: cells. In kind it is functional. The conditions noted are these: Chlorocebus sabaeus.
Assay [10] in a line: OVCAR8 cell viability loss – plate reader, dry powder samples, PAX8 project, dose response (AID 743197). In kind it is functional, cell-based. The following applies: OVCAR-8.
A short description of another assay: cells. In kind it is functional.
Assay [11] can be described thus: OVCAR-3 cell viability loss – plate reader, dry powder samples, PAX8 inhibitor project, dose response (AID 743044). In kind it is functional, cell-based.
Assay [12] has as its target T4, Rac GTPase-activating protein 1 (Homo sapiens, UniProt Q9H0H5).
T4 sequence (Q9H0H5 whole entry): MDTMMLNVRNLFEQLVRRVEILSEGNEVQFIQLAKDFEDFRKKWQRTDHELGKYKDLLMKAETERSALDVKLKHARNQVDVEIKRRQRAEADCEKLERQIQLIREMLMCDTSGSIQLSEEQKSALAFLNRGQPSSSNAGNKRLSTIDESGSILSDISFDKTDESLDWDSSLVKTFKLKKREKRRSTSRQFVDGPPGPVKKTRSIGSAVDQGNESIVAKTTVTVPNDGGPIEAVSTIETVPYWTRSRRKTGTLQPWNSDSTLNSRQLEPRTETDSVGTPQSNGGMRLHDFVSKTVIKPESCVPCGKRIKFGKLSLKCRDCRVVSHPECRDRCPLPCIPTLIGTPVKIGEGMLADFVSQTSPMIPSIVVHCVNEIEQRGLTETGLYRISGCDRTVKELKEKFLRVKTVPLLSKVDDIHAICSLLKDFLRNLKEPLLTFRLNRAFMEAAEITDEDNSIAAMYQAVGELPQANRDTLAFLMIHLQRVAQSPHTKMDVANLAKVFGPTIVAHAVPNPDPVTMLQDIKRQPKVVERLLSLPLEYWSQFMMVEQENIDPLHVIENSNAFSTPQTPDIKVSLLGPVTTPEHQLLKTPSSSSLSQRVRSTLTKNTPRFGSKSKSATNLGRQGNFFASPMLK
Description: blockers of MgcRacGAP-driven Rac1 GTP hydrolysis – biochemical, ADP Hunter fluorescence, primary and confirmatory, confirmation (AID 624330). In kind it is functional.

A further assay has as its system Streptococcus. Description: GAS UMAA2166 growth inhibition – luminescence, BacTiterGlo, counter-screen for streptokinase expression inhibitor project, dose response (AID 1915).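 Further: potency for reduction of bacterial viability or growth.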 The assay is classed as functional, organism-based.
The target in another assay is T5, Streptokinase A (Streptococcus pyogenes serotype M1, UniProt P10520).
T5 sequence (P10520 whole entry): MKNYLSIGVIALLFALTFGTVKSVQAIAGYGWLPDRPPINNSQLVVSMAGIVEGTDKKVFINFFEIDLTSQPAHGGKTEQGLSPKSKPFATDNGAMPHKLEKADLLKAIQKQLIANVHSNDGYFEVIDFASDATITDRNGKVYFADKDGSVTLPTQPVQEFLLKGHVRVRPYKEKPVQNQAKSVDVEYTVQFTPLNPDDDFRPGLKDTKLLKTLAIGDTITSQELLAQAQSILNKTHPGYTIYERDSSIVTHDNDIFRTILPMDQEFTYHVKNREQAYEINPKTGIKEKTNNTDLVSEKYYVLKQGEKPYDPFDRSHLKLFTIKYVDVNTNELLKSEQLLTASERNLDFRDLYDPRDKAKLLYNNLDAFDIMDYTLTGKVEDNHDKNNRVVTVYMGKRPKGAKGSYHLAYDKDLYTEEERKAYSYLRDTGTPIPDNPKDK
Description: viability-normalized secreted streptokinase activity reduction – plasminogen activation absorbance, OD405, dose response (AID 1914).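 Further: secreted streptokinase activity via plasminogen activation per viability signal from cell pellet.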 The assay is classed as functional, Streptococcus pyogenes M1 GAS.

For assay [13], the system named is Streptococcus sp. 'group A'. Description: Streptococcus pyogenes SK(-)GAS viability under kanamycin – luminescence, BacTiterGlo, confirmation, counter-screen for streptokinase expression inhibitor project, dose response (AID 1900). The assay is classed as functional, organism-based.
Assay [14] is described as follows: NIH-3T3 fibroblast cytotoxicity, dose response, cytotoxicity control, cell-based, fluorescence, Alamar Blue, secondary assay (AID 2327).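 Further: NIH-3T3 mouse fibroblasts cultured with fluconazole at 8 µg/mL.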 The assay is classed as functional. Background: The colour change of resazurin is a common sign of viable cells or microbes.

The source of these data is ChEMBL document CHEMBL1201862, “PubChem BioAssay data set” (2004).

Molecules are shown by their SMILES. Where a name gives a salt, the structure may show the parent alone. Calls of active or inactive are those of the source.

As a reminder, the AC50 is the concentration at which the activity in the assay is half-maximal. The term CC50 denotes the concentration at which the toxic effect on the cells reaches its halfway point.

Paired box protein Pax-8, sequence (Q06710 whole entry): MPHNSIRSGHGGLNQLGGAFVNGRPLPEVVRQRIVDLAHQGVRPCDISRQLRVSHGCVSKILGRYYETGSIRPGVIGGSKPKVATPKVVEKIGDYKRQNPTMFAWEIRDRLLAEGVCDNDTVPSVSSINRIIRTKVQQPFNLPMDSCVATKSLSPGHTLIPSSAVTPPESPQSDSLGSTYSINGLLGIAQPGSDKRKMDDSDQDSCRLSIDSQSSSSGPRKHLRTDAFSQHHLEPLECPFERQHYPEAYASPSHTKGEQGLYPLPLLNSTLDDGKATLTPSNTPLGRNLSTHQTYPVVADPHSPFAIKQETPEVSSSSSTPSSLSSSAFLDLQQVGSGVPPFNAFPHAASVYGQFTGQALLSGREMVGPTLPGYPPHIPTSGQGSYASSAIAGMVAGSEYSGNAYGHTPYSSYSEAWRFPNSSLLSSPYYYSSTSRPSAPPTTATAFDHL

As for `Fc1ccc(-c2cnc(-c3cccs3)o2)cc1`, the IC50 at Protein skinhead-1 is 24 µM (active).

In the case of `CN/C(=C\[N+](=O)[O-])NCCSCc1ccc(CN(C)C)o1` [RANITIDINE HYDROCHLORIDE], the concentration at half-maximal activity (AC50) in [1] is 11.8 µM (active).

Consider `Fc1cc(Cl)cc2ccc(-c3ccccc3)nc12`, for which, on Protein skinhead-1, the IC50 is 45.2 µM (active).

In the case of `C[C@H](CO)N1C[C@H](C)[C@H](CN(C)S(=O)(=O)c2cccs2)Oc2ccc(NC(=O)NC3CCCCC3)cc2CC1=O`, the half-maximal activity concentration (AC50) is 1.19 µM (active) in [2] and 3.49 µM (active) in assay [3].

As for `COC(=O)CN1C(=S)N(c2ccc(OC)cc2)C(=O)/C1=C/c1ccc(N2CCOCC2)cc1`, the IC50 on Protein skinhead-1 is > 100 µM (inactive).

Turning to `CCOc1ccccc1C1C2=C(O)OCC2=Nc2cc3c(cc21)OCO3` (centres undefined), the EC50 with BJ [4] is 442 nM (active); in [5], > 38 µM (not active); in assay [6], 468 nM (active); in the assay with BJ [7], 1.11 µM (inconclusive). The AC50 at Paired box protein Pax-8 was 2.15 µM (active).

As for `O=C(C[C@H]1CC[C@@H](NC(=O)c2cccc(F)c2)[C@H](CO)O1)NCc1ccc(Oc2ccccc2)cc1`, the AC50 was 1.2 µM (active) in assay [2] and 1.17 µM (active) in [3].

On to `Cc1ccc(/C=N/NC(=S)Nc2cccc(S(=O)(=O)N(C)C)c2)o1`, for which the EC50 in assay [8] was > 53 µM (inactive). Also, in [9], the IC50 was > 47.1 µM (inactive). Also, the CC50 with Vero was > 25 µM (active).

For `CC(C)CC#Cc1ccc2c(c1)O[C@@H](CN(C)S(=O)(=O)c1ccc(F)cc1)[C@H](C)CN([C@@H](C)CO)S2(=O)=O`, the AC50 at Paired box protein Pax-8 was 9.45 µM (active); in assay [2], 30.8 µM (active); in [10] it was 61 µM (active); in assay [3], 44.9 µM (active).

Consider `O=C(OCC(=O)N1CCN(c2ccccc2)CC1)c1ccc(Cl)cc1[N+](=O)[O-]`, for which, in the assay “cells”, the IC50 was > 50 µM (active).

Consider `Cc1ccc(OC(=O)N(C)C[C@@H]2OCc3ccccc3-c3c(n(C)c4ccccc34)C(=O)N([C@@H](C)CO)C[C@H]2C)cc1`, for which the concentration at half-maximal activity (AC50) in [11] is 39.9 µM (active); at Paired box protein Pax-8, 4.78 µM (active); in [10], > 70 µM (inactive).

Turning to `CC[N+](CC)(CC)CCCCOc1ccc2c(c1)C(=O)c1cc(OCCCC[N+](CC)(CC)CC)ccc1-2`, the half-maximal activity concentration (AC50) in assay [1] is 0.506 µM (active). Also, the IC50 in [12] was 221 µM (active).

In the case of `O=C(Nc1nnc(-c2ccc(Br)cc2)o1)c1ccco1`, the EC50 in the assay on Streptococcus is 13.7 µM (active); at Streptokinase A it was > 150 µM (not active); in assay [13] it was 3.78 µM (active). For the same compound, the IC50 in “cells” was 3.95 µM (active).

Turning to `Cc1ccsc1C(=O)OCC(=O)Nc1nnc(-c2ccccc2)o1`, the EC50 in assay [5] is 3.98 µM (active); in assay [14] it was > 160 µM (inactive). Further, the IC50 in the assay “cells” is 15.1 µM (active).

As for `Cc1cc(N2CCN(C)CC2)nc2ccc(NC(=S)N3CCCCC3)cc12`, the AC50 in assay [1] was 10.9 µM (active).

Turning to `CN1CCN(C2Cc3ccc(Cl)cc3Sc3ccc(F)cc32)CC1` (centres undefined), the figures for the EC50 (in the assay with Streptococcus; on Streptokinase A; in assay [13]) were 11.9 µM (active), > 150 µM (not active) and 4.95 µM (active), respectively. The concentration at half-maximal activity (AC50) in assay [1] was 14.1 µM (active).

Turning to `Cn1ccs/c1=N\C(=O)c1ccc(OC(F)(F)F)cc1`, the IC50 at Protein skinhead-1 is 29.8 µM (active).
